The values below come from patent US10758534B2 (Vertex Pharmaceuticals Incorporated, priority 2014, dated 2020).

The assay deals with T1, F508del (Homo sapiens, UniProt P13569, DEL508-508).
T1 construct: expressed in transfected cells
T1 sequence (P13569 with tags, fused parts or gaps DEL508-508): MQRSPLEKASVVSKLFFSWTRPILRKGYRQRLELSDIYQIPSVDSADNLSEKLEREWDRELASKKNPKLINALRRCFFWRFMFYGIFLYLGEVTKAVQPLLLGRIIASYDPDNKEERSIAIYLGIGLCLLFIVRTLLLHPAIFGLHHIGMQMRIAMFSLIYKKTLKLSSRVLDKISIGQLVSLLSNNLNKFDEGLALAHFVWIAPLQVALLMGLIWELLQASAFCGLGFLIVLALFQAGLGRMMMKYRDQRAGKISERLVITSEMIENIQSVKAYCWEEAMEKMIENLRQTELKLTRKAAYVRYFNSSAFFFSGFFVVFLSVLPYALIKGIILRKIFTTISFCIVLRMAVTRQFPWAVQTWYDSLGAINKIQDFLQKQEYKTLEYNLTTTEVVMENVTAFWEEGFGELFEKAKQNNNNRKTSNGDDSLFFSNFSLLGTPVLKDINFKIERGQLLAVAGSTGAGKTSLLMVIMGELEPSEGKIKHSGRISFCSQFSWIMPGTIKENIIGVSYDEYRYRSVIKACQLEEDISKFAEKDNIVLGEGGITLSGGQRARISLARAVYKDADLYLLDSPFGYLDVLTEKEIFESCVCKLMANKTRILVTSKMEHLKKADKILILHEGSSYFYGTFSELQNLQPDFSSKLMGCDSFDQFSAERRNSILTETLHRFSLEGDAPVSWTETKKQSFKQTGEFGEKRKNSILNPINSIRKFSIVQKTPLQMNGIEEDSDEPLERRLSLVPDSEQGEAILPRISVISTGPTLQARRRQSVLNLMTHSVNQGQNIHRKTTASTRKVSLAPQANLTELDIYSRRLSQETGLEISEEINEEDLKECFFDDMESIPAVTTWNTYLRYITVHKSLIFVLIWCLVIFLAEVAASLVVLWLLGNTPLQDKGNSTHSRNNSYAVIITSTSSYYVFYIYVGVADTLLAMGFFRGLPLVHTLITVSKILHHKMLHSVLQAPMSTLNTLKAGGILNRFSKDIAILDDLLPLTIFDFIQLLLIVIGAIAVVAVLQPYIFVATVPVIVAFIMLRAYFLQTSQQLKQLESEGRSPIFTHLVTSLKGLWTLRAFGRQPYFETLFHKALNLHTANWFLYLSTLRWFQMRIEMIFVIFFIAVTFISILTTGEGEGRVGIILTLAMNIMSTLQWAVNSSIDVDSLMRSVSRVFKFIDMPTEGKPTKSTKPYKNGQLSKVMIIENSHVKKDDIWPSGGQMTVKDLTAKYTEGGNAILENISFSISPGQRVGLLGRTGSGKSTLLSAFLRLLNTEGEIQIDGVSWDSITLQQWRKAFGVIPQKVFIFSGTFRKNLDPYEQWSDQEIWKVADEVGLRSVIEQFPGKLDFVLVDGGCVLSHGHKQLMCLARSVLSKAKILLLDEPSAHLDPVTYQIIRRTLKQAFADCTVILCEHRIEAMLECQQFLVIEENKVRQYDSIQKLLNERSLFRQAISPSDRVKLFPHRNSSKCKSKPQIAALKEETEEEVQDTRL
The assay can be described thus: Protocol 1: membrane potential optical assay (FLIPR III, voltage sensing dye), identification of potentiator compounds. The assay is classed as cell-based. The following applies: Table 3, compounds of Table 1. The method in brief: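 NIH3T3 F508del cells, 27° C × 24 hrs; compound/DMSO pretreat → redistribution dye load → single forskolin addition with Cl⁻ gradient (gluconate-substituted bath, HEPES pH 7.4). FLIPR III membrane-potential fluorescence read.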
With `COc1cc(C)cc(S(=O)(=O)NC(=O)c2ccc(-c3cc(F)cc(OCC(C)C)c3)nc2N2C[C@@H](C)CC2(C)C)n1` [Compound 1482, 6-(3-fluoro-5-isobutoxy-phenyl)-N-[(6-methoxy-4-methyl-2-pyridyl)sulfonyl]-2-[(4S)-2,2,4-trimethylpyrrolidin-1-yl]pyridine-3-carboxamide], the EC30 entry is “+++ (“+++” means <3 uM)”.
As for `CCOc1cccc2c1CN(Cc1c(C)cc(C)cc1C)C2(C)C(=O)NS(=O)(=O)c1ccncc1` (stereo not shown) [Compound 1449, 4-ethoxy-1-methyl-N-(4-pyridylsulfonyl)-2-[(2,4,6-trimethylphenyl)methyl]isoindoline-1-carboxamide], the EC30 result is “+++ (“+++” means <3 uM)”.
For `C#CCOc1cccc(S(=O)(=O)NC(=O)c2cccnc2N2CC(C)CC2(C)C)n1` (stereo not shown) [Compound 1753, N-[(6-prop-2-ynoxy-2-pyridyl)sulfonyl]-2-(2,2,4-trimethylpyrrolidin-1-yl)pyridine-3-carboxamide] the value was “++ (“++” means between 3 uM and 10 uM)”; for `CCOc1ccccc1-c1ccc(C(=O)NS(=O)(=O)c2ccc[nH]c2=O)c(N2C[C@@H](C)CC2(C)C)n1` [Compound 1848, 6-(2-ethoxyphenyl)-N-[(2-oxo-1H-pyridin-3-yl)sulfonyl]-2-[(4S)-2,2,4-trimethylpyrrolidin-1-yl]pyridine-3-carboxamide], “+++ (“+++” means <3 uM)”; for `CC1CN(c2ncccc2C(=O)NS(=O)(=O)c2cccc(NCCCN(C)c3ccccc3)n2)C(C)(C)C1` (stereo not shown) [Compound 1879, N—[[6-[3-(N-methylanilino)propylamino]-2-pyridyl]sulfonyl]-2-(2,2,4-trimethylpyrrolidin-1-yl)pyridine-3-carboxamide], “+++ (“+++” means <3 uM)”.
To `C[C@@H]1CN(c2nc(-c3cccc(O)c3)ccc2C(=O)NS(=O)(=O)c2cccnc2N)C(C)(C)C1` [Compound 1820, N-[(2-amino-3-pyridyl)sulfonyl]-6-(3-hydroxyphenyl)-2-[(4S)-2,2,4-trimethylpyrrolidin-1-yl]pyridine-3-carboxamide] belongs “++ (“++” means between 3 uM and 10 uM)”; to `Cc1cc(C)c(Oc2nc(-c3cccc4c3OCO4)ccc2C(=O)NS(=O)(=O)c2cccc(N)n2)c(C)c1` [Compound 974, N-[(6-amino-2-pyridyl)sulfonyl]-6-(1,3-benzodioxol-4-yl)-2-(2,4,6-trimethylphenoxy)pyridine-3-carboxamide], “+++ (“+++” means <3 uM)”.
For `CC1CN(c2ncc(-c3cccc(OC4CCCC4)c3)cc2C(=O)NS(=O)(=O)c2cccc(N)n2)C(C)(C)C1` (stereo not shown) [Compound 1918, N-[(6-amino-2-pyridyl)sulfonyl]-5-[3-(cyclopentoxy)phenyl]-2-(2,2,4-trimethylpyrrolidin-1-yl)pyridine-3-carboxamide] the value was “+++ (“+++” means <3 uM)”.
Regarding `CC1CN(c2ncccc2C(=O)NS(=O)(=O)c2cccc(OCc3ccsc3)n2)C(C)(C)C1` (stereo not shown) [Compound 1992, N—[[6-(3-thienylmethoxy)-2-pyridyl]sulfonyl]-2-(2,2,4-trimethylpyrrolidin-1-yl)pyridine-3-carboxamide], the EC30 result is “+++ (“+++” means <3 uM)”.
To `C[C@@H]1CN(c2nc(-c3ccc(OC(F)(F)F)cc3)ccc2C(=O)NS(=O)(=O)N2CC[C@H](N)C2)C(C)(C)C1` [Compound 1763, N-[(3S)-3-aminopyrrolidin-1-yl]sulfonyl-6-[4-(trifluoromethoxy)phenyl]-2-[(4S)-2,2,4-trimethylpyrrolidin-1-yl]pyridine-3-carboxamide] belongs “+++ (“+++” means <3 uM)”.
To `CCOc1cccc2c1CN(Cc1cc(F)cc(OC)c1)C2(C)C(=O)NS(=O)(=O)c1cccc(F)n1` (stereo not shown) [Compound 1428, 4-ethoxy-2-[(3-fluoro-5-methoxy-phenyl)methyl]-N-[(6-fluoro-2-pyridyl)sulfonyl]-1-methyl-isoindoline-1-carboxamide] belongs “+++ (“+++” means <3 uM)”.
To `Cc1cc(C)c(Oc2nc(-c3ccccc3Cl)ccc2C(=O)NS(=O)(=O)c2cccc(N)n2)c(C)c1` [Compound 1221, N-[(6-amino-2-pyridyl)sulfonyl]-6-(2-chlorophenyl)-2-(2,4,6-trimethylphenoxy)pyridine-3-carboxamide] belongs “+++ (“+++” means <3 uM)”.
As for `Cc1cccc(-c2ccc(C(=O)NS(=O)(=O)c3cccnc3N)c(N3C[C@@H](C)CC3(C)C)n2)c1C` [Compound 1713, N-[(2-amino-3-pyridyl)sulfonyl]-6-(2,3-dimethylphenyl)-2-[(4S)-2,2,4-trimethylpyrrolidin-1-yl]pyridine-3-carboxamide], the EC30 result was “+++ (“+++” means <3 uM)”.
For `CC(c1ccccc1)n1nc(C(C)(C)C)cc1C(=O)NS(=O)(=O)c1cccc(N)c1` (stereo not shown) [Compound 799, N-(3-aminophenyl)sulfonyl-5-ter-butyl-2-(1-phenylethyl)pyrazole-3-carboxamide] the value was “+ (“+” means greater than 10 uM)”; for `CC(C)Oc1ccc(-c2ccc(C(=O)NS(=O)(=O)c3cccc(N)n3)c(N3CCCC(C(F)(F)F)C3)n2)cn1` (stereo not shown) [Compound 1274, N-[(6-amino-2-pyridyl)sulfonyl]-6-(6-isopropoxy-3-pyridyl)-2-[3-(trifluoromethyl)-1-piperidyl]pyridine-3-carboxamide], “+++ (“+++” means <3 uM)”.
For `CCOc1cccc2c1CN(Cc1c(C)cc(C)cc1C)C2(C)C(=O)NS(=O)(=O)c1ccc2cc[nH]c2c1` (stereo not shown) [Compound 1393, 4-ethoxy-N-(1H-indol-6-ylsulfonyl)-1-methyl-2-[(2,4,6-trimethylphenyl)methyl]isoindoline-1-carboxamide] the value was “+++ (“+++” means <3 uM)”.
For `CC(C)Oc1ccc(-c2ccc(C(=O)NS(=O)(=O)c3cccc(N)n3)c(NC3CCc4ccccc43)n2)cn1` (stereo not shown) [Compound 935, N-[(6-amino-2-pyridyl)sulfonyl]-2-(indan-1-ylamino)-6-(6-isopropoxy-3-pyridyl)pyridine-3-carboxamide] the value was “++ (“++” means between 3 uM and 10 uM)”.
As for `CC(C)COc1cc(F)cc(-c2ccc(C(=O)NS(=O)(=O)c3ccn[nH]3)c(NC3CCCC(C(F)(F)F)C3)n2)c1` (stereo not shown) [Compound 1281, 6-(3-fluoro-5-isobutoxy-phenyl)-N-(1H-pyrazol-5-ylsulfonyl)-2-[[3-(trifluoromethyl)cyclohexyl]amino]pyridine-3-carboxamide], the EC30 result was “++ (“++” means between 3 uM and 10 uM)”.
For `CC(=O)N(C)C1CCN(S(=O)(=O)NC(=O)c2ccc(-c3cc(F)cc(OCC(C)C)c3)nc2N2CC(C)CC2(C)C)C1` (stereo not shown) [Compound 1533, N—[3-[acetyl(methyl)amino]pyrrolidin-1-yl]sulfonyl-6-(3-fluoro-5-isobutoxy-phenyl)-2-(2,2,4-trimethylpyrrolidin-1-yl)pyridine-3-carboxamide] the value was “+++ (“+++” means <3 uM)”; for `CC1CN(c2ncc(/C=C/C3CC3)cc2C(=O)NS(=O)(=O)c2cccc(N)n2)C(C)(C)C1` (stereo not shown) [Compound 1571, N-[(6-amino-2-pyridyl)sulfonyl]-5-[(E)-2-cyclopropylvinyl]-2-(2,2,4-trimethylpyrrolidin-1-yl)pyridine-3-carboxamide], “+++ (“+++” means <3 uM)”.
To `CCCOc1ccc(-c2ccc(C(=O)NS(=O)(=O)c3cccc(N)n3)c(Oc3c(C)cc(C)cc3C)n2)cc1` [Compound 996, N-[(6-amino-2-pyridyl)sulfonyl]-6-(4-propoxyphenyl)-2-(2,4,6-trimethylphenoxy)pyridine-3-carboxamide] belongs “+++ (“+++” means <3 uM)”; to `CC(C)(C)c1ccc(C(=O)NS(=O)(=O)c2cccc(N)n2)c(OC2CCC2)n1` [Compound 1154, N-[(6-amino-2-pyridyl)sulfonyl]-6-tert-butyl-2-(cyclobutoxy)pyridine-3-carboxamide], “++ (“++” means between 3 uM and 10 uM)”.
For `CC(C)COc1cc(F)cc(-c2ccc(C(=O)NS(=O)(=O)c3cccc(N)n3)c(OC3CCOCC3)n2)c1` [Compound 1324, N-[(6-amino-2-pyridyl)sulfonyl]-6-(3-fluoro-5-isobutoxy-phenyl)-2-tetrahydropyran-4-yloxy-pyridine-3-carboxamide] the value was “+++ (“+++” means <3 uM)”.
For `Cc1cc(C)c(Oc2nc(C(C)C)ccc2C(=O)NS(=O)(=O)c2cccc(N)n2)c(C)c1` [Compound 1232, N-[(6-amino-2-pyridyl)sulfonyl]-6-isopropyl-2-(2,4,6-trimethylphenoxy)pyridine-3-carboxamide], the EC30 entry is reported as “+++ (“+++” means <3 uM)”.
To `COc1ccc(-c2ccc(C(=O)NS(=O)(=O)c3cccnc3N)c(N3C[C@@H](C)CC3(C)C)n2)c(OC)c1` [Compound 1705, N-[(2-amino-3-pyridyl)sulfonyl]-6-(2,4-dimethoxyphenyl)-2-[(4S)-2,2,4-trimethylpyrrolidin-1-yl]pyridine-3-carboxamide] belongs “+++ (“+++” means <3 uM)”; to `Cc1ccc(-c2nc3c(cc2C(=O)NS(=O)(=O)c2ccc(N)cc2)CCCC3(C)C)cc1` [Compound 1307, N-(4-aminophenyl)sulfonyl-8,8-dimethyl-2-(p-tolyl)-6,7-dihydro-5H-quinoline-3-carboxamide], “++ (“++” means between 3 uM and 10 uM)”; to `CC1CN(c2nc(-c3cccc(OCC(C)(C)C)n3)ccc2C(=O)NS(=O)(=O)c2cccc(N)n2)C(C)(C)C1` (stereo not shown) [Compound 1062, N-[(6-amino-2-pyridyl)sulfonyl]-6-[6-(2,2-dimethylpropoxy)-2-pyridyl]-2-(2,2,4-trimethylpyrrolidin-1-yl)pyridine-3-carboxamide], “+++ (“+++” means <3 uM)”.
To `COc1ccc(-c2ccc(C(=O)NS(=O)(=O)c3cccc(N)n3)c(Oc3c(C)cc(C)cc3C)n2)cc1F` [Compound 1140, N-[(6-amino-2-pyridyl)sulfonyl]-6-(3-fluoro-4-methoxy-phenyl)-2-(2,4,6-trimethylphenoxy)pyridine-3-carboxamide] belongs “+++ (“+++” means <3 uM)”.
